Laboratory results reported in ChEMBL document CHEMBL1126095, “Incorporation of a novel conformationally restricted tyrosine analog into a cyclic, delta opioid receptor selective tetrapeptide (JOM-13) enhances delta receptor binding affinity and selectivity” (J Med Chem, 1992).
Positions of bridges follow the written chain, without caps; N, C: chain ends. Non-standard residues stand in square brackets, D forms with d. Residues, ends and D or L forms follow the SMILES beside them. Pen = CC(C)(S)[C@H](N)C(=O)O

How the values were obtained:
Mu-type opioid receptor = Mu-type opioid receptor (Cavia porcellus, UniProt P97266); assay: Binding affinity against opioid receptor mu in guinea pig brain homogenates, using [3H]DAMGO as radioligand.; assay type: tissue-based
Chain of Mu-type opioid receptor (P97266 whole entry): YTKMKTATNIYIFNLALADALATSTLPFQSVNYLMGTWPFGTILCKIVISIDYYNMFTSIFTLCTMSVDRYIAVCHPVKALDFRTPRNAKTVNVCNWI

[1] = molecular target: Kappa-type opioid receptor (Cavia porcellus, UniProt P41144); assay: Binding affinity against opioid receptor kappa from guinea pig brain homogenates, using [3H]U-69593 as radioligand.; assay type: tissue-based
Chain of Kappa-type opioid receptor (P41144 whole entry): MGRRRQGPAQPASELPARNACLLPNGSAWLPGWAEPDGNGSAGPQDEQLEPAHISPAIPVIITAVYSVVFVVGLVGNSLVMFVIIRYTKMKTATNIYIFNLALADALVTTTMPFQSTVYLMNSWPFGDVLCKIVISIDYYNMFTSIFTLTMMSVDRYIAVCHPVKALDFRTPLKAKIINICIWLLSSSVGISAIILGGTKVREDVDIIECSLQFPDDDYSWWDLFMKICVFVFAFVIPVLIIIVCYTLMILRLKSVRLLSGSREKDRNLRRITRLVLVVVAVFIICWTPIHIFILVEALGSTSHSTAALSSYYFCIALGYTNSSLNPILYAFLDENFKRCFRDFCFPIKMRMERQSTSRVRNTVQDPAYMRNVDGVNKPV

[2] = Binding affinity against Opioid receptor delta 1 in guinea pig brain homogenates, using [3H]DPDPE as radioligand.

CC1(C)SSC[C@@H](NC(=O)[C@H]2NCC[C@@H]2c2ccc(O)cc2)C(=O)N[C@@H](Cc2ccccc2)C(=O)N[C@@H]1C(=O)O
Ki (Mu-type opioid receptor): 0.105 µM | Ki [1]: 10 µM

CC1(C)SSC[C@@H](NC(=O)[C@@H]2NCC[C@@H]2c2ccc(O)cc2)C(=O)N[C@@H](Cc2ccccc2)C(=O)N[C@@H]1C(=O)O
Ki (Mu-type opioid receptor): 10 µM | Ki [1]: > 10 µM

CC1(C)SSC[C@H](NC(=O)[C@@H](N)Cc2ccc(O)cc2)C(=O)N[C@@H](Cc2ccccc2)C(=O)N[C@@H]1C(=O)O (H-YCF[Pen]-OH; disulfide 2-4)
Ki [2]: 0.00179 µM
